In patent US20080103141A1, “New compounds” (Biovitrum, priority 2006, published 2008):

target: T1, human GPR119 receptor (Homo sapiens, UniProt Q8TDV5); experiment: Human GPR119 activity assay (cAMP HTRF in HEK293-hGPR119 cells); type: cell-based; conditions: stimulation of cAMP in HEK293 cells stably expressing human GPR119, 20 min at room temperature, read-out: Agonist potency at the human GPR119, EC50
T1 construct: expressed in transfected cells
T1 sequence (Q8TDV5 1-335): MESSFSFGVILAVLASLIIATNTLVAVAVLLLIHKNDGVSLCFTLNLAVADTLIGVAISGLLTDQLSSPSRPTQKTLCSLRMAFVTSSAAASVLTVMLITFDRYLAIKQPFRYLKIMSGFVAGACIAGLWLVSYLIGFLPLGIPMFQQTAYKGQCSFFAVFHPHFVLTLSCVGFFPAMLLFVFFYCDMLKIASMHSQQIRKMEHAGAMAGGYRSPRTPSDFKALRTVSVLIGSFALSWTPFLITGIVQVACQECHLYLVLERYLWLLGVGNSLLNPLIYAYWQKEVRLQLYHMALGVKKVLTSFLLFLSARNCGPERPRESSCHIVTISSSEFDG
Description: Human GPR119 Activity Assay
Agonists to the human GPR119 receptor were characterized by measuring human GPR119 receptor-mediated stimulation of cyclic AMP (cAMP) in HEK 293 cells expressing the human GPR119 receptor.
Briefly, cAMP content was determined using a cAMP kit based on HTRF technology (Homogeneous Time-Resolved Fluorescence, Cisbio Cat. no. 62AM2PEC). HEK293 cells stably expressing the human GPR119 receptor (HEK293-hGPR119 cells) were cultured in DMEM (Gibco # 31966-021) supplemented with 10% Bovine Calf Serum (Hyclone # SH30072.03), and, 500 μg/mL Hygromycin B (Roche Diagnostics 843555). At 80% confluency, cells were detached using Trypsine and aliquoted at a density of 5×10^6 cells/mL in freezing medium (DMEM (Gibco # 31966-021), 20% BCS (Hyclone # SH30072.03), 10% DMSO (Sigma #D2650) and stored at −135° C. On the experimental day, HEK293-hGPR119 cells were thawn and diluted to 0.4×10^6 cells/mL in assay buffer (1×HBSS (Gibco Cat. no. 14025-049), 20 mM Hepes (Gibco Cat. no. 15630-056), 0.1% BSA, pH 7.4) and incubated with test substances for 20 min at room temperature. After addition of HTRF reagents diluted in lysis buffer, the 96- or 384-well plates were incubated 1 hour, followed by measuring the fluorescence ratio at 665 nm/620 nm. Test substances was diluted in compound buffer (1×HBSS (Gibco Cat. no. 14025-049), 20 mM Hepes (Gibco Cat. no. 15630-056), 0.1% BSA, 2 mM IBMX (Sigma-Aldrich Cat. No. 17018, pH 7.4). The potency of the agonist was quantified by determine the concentration that cause 50% activation of hGPR119 evoked increase in cAMP, EC50.

In order of rising EC50:
1. CC(C)(C)OC(=O)N1CCC(COc2ncc(-c3ccc(S(C)(=O)=O)cc3)cn2)CC1 [EXAMPLE A2, tert-Butyl 4-[({5-[4-(methylsulfonyl)phenyl]pyrimidin-2-yl}oxy)methyl]piperidine-1-carboxylate]  14 nM
2. CC(C)(C)OC(=O)N1CCC(CNc2ncc(-c3ccc(S(C)(=O)=O)cc3)cn2)CC1 [EXAMPLE A22, tert-Butyl 4-[({5-[4-(methylsulfonyl)phenyl]pyrimidin-2-yl}amino)methyl]piperidine-1-carboxylate]  55 nM
3. CC(C)(C)OC(=O)N1CCC(NCc2cnc(-c3ccc(S(C)(=O)=O)cc3)nc2)CC1 [EXAMPLE B1, tert-Butyl 4-[({2-[4-(methylsulfonyl)phenyl]pyrimidin-5-yl}methyl)amino]piperidine-1-carboxylate]  453 nM
